Data as given in patent US11021457B2, “Class of isoindolone-imide ring-1,3-dione-2-ene compounds, composition and use thereof” (WIGEN BIOMEDICINE TECHNOLOGY (SHANGHAI) CO., LTD., priority 2017, dated 2021).

Tested on: MDA-MB-453
Assay: Inhibition of tumor cell proliferation, CellTiter-Glo, MDA-MB-453
Format: cell-based
Conditions: compound concentration 50 μM, 72 hours
Procedure: (§1) For various cell lines, the corresponding complete medium was used, and culture was carried out in an incubator at 37° C. with 5% CO2. The cells were counted, and inoculated into a 96-well plate at 2000-10000 cells/100 μl per well according to the cell volume and growth rate. The suspended cells were treated immediately, and the adherent cells were treated after adherence. The CellTiter-Glo method was used to detect the changes in cell viability 72 hours after the administration, and the cell survival rate at different concentrations was calculated by a formula: Survival rate (%)=(RLU of treatment well−RLU of blank well)/(RLU of control well−RLU of blank well)×100.
(§2) Method for expressing the inhibitory activity of the compounds against the proliferation of tumor cells: Evaluation was made based on the cell survival rate at a compound concentration of 50 μM. 60≤survival rate (%)<90 is considered to have low inhibitory activity against the proliferation of tumor cells (+); 30<survival rate (%)≤60 is considered to have moderate inhibitory activity against the proliferation of tumor cells (++); and survival rate (%)≤30 is considered to have high inhibitory activity against the proliferation of tumor cells (+++).

| SMILES | Inhibitory activity against proliferation (cell survival rate) MDA-MB-453 |
| --- | --- |
| O=C1CCC(N2Cc3c(NC(=O)NCCNC=C4C(=O)CC(c5ccccc5)CC4=O)cccc3C2=O)C(=O)N1 (stereo not drawn) [Compound 77] | +++ (survival rate (%)≤30) |
| O=C1CCC(N2Cc3c(NC(=O)OCCNC=C4C(=O)CC(c5ccccc5)CC4=O)cccc3C2=O)C(=O)N1 (stereo not drawn) [Compound 78] | +++ (survival rate (%)≤30) |
| O=C1CCC(N2Cc3c(NC(=O)OCCN4CCN(CCNC=C5C(=O)CC(c6ccccc6)CC5=O)CC4)cccc3C2=O)C(=O)N1 (stereo not drawn) [Compound 79] | ++ (30<survival rate (%)≤60) |
| O=C1CCC(N2C(=O)c3cccc(NC(=O)OCCN4CCN(CCNC=C5C(=O)CC(c6ccccc6)CC5=O)CC4)c3C2=O)C(=O)N1 (stereo not drawn) [Compound 80] | ++ (30<survival rate (%)≤60) |
| O=C1CCC(N2Cc3c(NC(=O)Nc4ccccc4OC(=O)CCC(=O)OCCN4CCN(CCNC=C5C(=O)CC(c6ccccc6)CC5=O)CC4)cccc3C2=O)C(=O)N1 (stereo not drawn) [Compound 81] | ++ (30<survival rate (%)≤60) |
| O=C1CCC(N2C(=O)c3cccc(NC(=O)OCc4ccc(NC=C5C(=O)CC(c6ccccc6)CC5=O)nc4)c3C2=O)C(=O)N1 (stereo not drawn) [Compound 83] | ++ (30<survival rate (%)≤60) |
| O=C1CCC(N2Cc3c(NC(=O)OCc4cnc(NC=C5C(=O)CC(c6ccccc6)CC5=O)s4)cccc3C2=O)C(=O)N1 (stereo not drawn) [Compound 84] | +++ (survival rate (%)≤30) |
| O=C1CCC(N2Cc3c(NC(=O)OCOC(=O)C=CC(=O)N4CCN(CCNC=C5C(=O)CC(c6ccccc6)CC5=O)CC4)cccc3C2=O)C(=O)N1 (stereo not drawn) [Compound 85] | + (60≤survival rate (%)<90) |

Tested on: BxPC-3
Assay: Inhibition of tumor cell proliferation, CellTiter-Glo, BxPC-3
Format: cell-based
Conditions: compound concentration 50 μM, 72 hours
Procedure: as §1, §2

| SMILES | Inhibitory activity against proliferation (cell survival rate) BxPC-3 |
| --- | --- |
| O=C1CCC(N2Cc3c(NC(=O)NCCNC=C4C(=O)CC(c5ccccc5)CC4=O)cccc3C2=O)C(=O)N1 (stereo not drawn) [Compound 77] | + (60≤survival rate (%)<90) |
| O=C1CCC(N2Cc3c(NC(=O)OCCNC=C4C(=O)CC(c5ccccc5)CC4=O)cccc3C2=O)C(=O)N1 (stereo not drawn) [Compound 78] | + (60≤survival rate (%)<90) |
| O=C1CCC(N2Cc3c(NC(=O)OCCN4CCN(CCNC=C5C(=O)CC(c6ccccc6)CC5=O)CC4)cccc3C2=O)C(=O)N1 (stereo not drawn) [Compound 79] | ++ (30<survival rate (%)≤60) |
| O=C1CCC(N2C(=O)c3cccc(NC(=O)OCCN4CCN(CCNC=C5C(=O)CC(c6ccccc6)CC5=O)CC4)c3C2=O)C(=O)N1 (stereo not drawn) [Compound 80] | + (60≤survival rate (%)<90) |
| O=C1CCC(N2Cc3c(NC(=O)Nc4ccccc4OC(=O)CCC(=O)OCCN4CCN(CCNC=C5C(=O)CC(c6ccccc6)CC5=O)CC4)cccc3C2=O)C(=O)N1 (stereo not drawn) [Compound 81] | + (60≤survival rate (%)<90) |
| O=C1CCC(N2C(=O)c3cccc(NC(=O)OCc4ccc(NC=C5C(=O)CC(c6ccccc6)CC5=O)nc4)c3C2=O)C(=O)N1 (stereo not drawn) [Compound 83] | + (60≤survival rate (%)<90) |
| O=C1CCC(N2Cc3c(NC(=O)OCc4cnc(NC=C5C(=O)CC(c6ccccc6)CC5=O)s4)cccc3C2=O)C(=O)N1 (stereo not drawn) [Compound 84] | + (60≤survival rate (%)<90) |
| O=C1CCC(N2Cc3c(NC(=O)OCOC(=O)C=CC(=O)N4CCN(CCNC=C5C(=O)CC(c6ccccc6)CC5=O)CC4)cccc3C2=O)C(=O)N1 (stereo not drawn) [Compound 85] | + (60≤survival rate (%)<90) |

Tested on: A549
Assay: Inhibition of tumor cell proliferation, CellTiter-Glo, A549
Format: cell-based
Conditions: compound concentration 50 μM, 72 hours
Procedure: as §1, §2

| SMILES | Inhibitory activity against proliferation (cell survival rate) A549 |
| --- | --- |
| O=C1CCC(N2Cc3c(NC(=O)NCCNC=C4C(=O)CC(c5ccccc5)CC4=O)cccc3C2=O)C(=O)N1 (stereo not drawn) [Compound 77] | +++ (survival rate (%)≤30) |
| O=C1CCC(N2Cc3c(NC(=O)OCCNC=C4C(=O)CC(c5ccccc5)CC4=O)cccc3C2=O)C(=O)N1 (stereo not drawn) [Compound 78] | +++ (survival rate (%)≤30) |
| O=C1CCC(N2Cc3c(NC(=O)OCCN4CCN(CCNC=C5C(=O)CC(c6ccccc6)CC5=O)CC4)cccc3C2=O)C(=O)N1 (stereo not drawn) [Compound 79] | + (60≤survival rate (%)<90) |
| O=C1CCC(N2C(=O)c3cccc(NC(=O)OCCN4CCN(CCNC=C5C(=O)CC(c6ccccc6)CC5=O)CC4)c3C2=O)C(=O)N1 (stereo not drawn) [Compound 80] | +++ (survival rate (%)≤30) |
| O=C1CCC(N2Cc3c(NC(=O)Nc4ccccc4OC(=O)CCC(=O)OCCN4CCN(CCNC=C5C(=O)CC(c6ccccc6)CC5=O)CC4)cccc3C2=O)C(=O)N1 (stereo not drawn) [Compound 81] | +++ (survival rate (%)≤30) |
| O=C1CCC(N2C(=O)c3cccc(NC(=O)OCc4ccc(NC=C5C(=O)CC(c6ccccc6)CC5=O)nc4)c3C2=O)C(=O)N1 (stereo not drawn) [Compound 83] | + (60≤survival rate (%)<90) |
| O=C1CCC(N2Cc3c(NC(=O)OCc4cnc(NC=C5C(=O)CC(c6ccccc6)CC5=O)s4)cccc3C2=O)C(=O)N1 (stereo not drawn) [Compound 84] | + (60≤survival rate (%)<90) |
| O=C1CCC(N2Cc3c(NC(=O)OCOC(=O)C=CC(=O)N4CCN(CCNC=C5C(=O)CC(c6ccccc6)CC5=O)CC4)cccc3C2=O)C(=O)N1 (stereo not drawn) [Compound 85] | ++ (30<survival rate (%)≤60) |

Tested on: SU-DHL6
Assay: Inhibition of tumor cell proliferation, CellTiter-Glo, SU-DHL6
Format: cell-based
Conditions: compound concentration 50 μM, 72 hours
Procedure: as §1, §2

| SMILES | Inhibitory activity against proliferation (cell survival rate) SU-DHL6 |
| --- | --- |
| O=C1CCC(N2Cc3c(NC(=O)NCCNC=C4C(=O)CC(c5ccccc5)CC4=O)cccc3C2=O)C(=O)N1 (stereo not drawn) [Compound 77] | + (60≤survival rate (%)<90) |
| O=C1CCC(N2Cc3c(NC(=O)OCCNC=C4C(=O)CC(c5ccccc5)CC4=O)cccc3C2=O)C(=O)N1 (stereo not drawn) [Compound 78] | + (60≤survival rate (%)<90) |
| O=C1CCC(N2Cc3c(NC(=O)OCCN4CCN(CCNC=C5C(=O)CC(c6ccccc6)CC5=O)CC4)cccc3C2=O)C(=O)N1 (stereo not drawn) [Compound 79] | + (60≤survival rate (%)<90) |
| O=C1CCC(N2C(=O)c3cccc(NC(=O)OCCN4CCN(CCNC=C5C(=O)CC(c6ccccc6)CC5=O)CC4)c3C2=O)C(=O)N1 (stereo not drawn) [Compound 80] | + (60≤survival rate (%)<90) |
| O=C1CCC(N2Cc3c(NC(=O)Nc4ccccc4OC(=O)CCC(=O)OCCN4CCN(CCNC=C5C(=O)CC(c6ccccc6)CC5=O)CC4)cccc3C2=O)C(=O)N1 (stereo not drawn) [Compound 81] | +++ (survival rate (%)≤30) |
| O=C1CCC(N2C(=O)c3cccc(NC(=O)OCc4ccc(NC=C5C(=O)CC(c6ccccc6)CC5=O)nc4)c3C2=O)C(=O)N1 (stereo not drawn) [Compound 83] | + (60≤survival rate (%)<90) |
| O=C1CCC(N2Cc3c(NC(=O)OCc4cnc(NC=C5C(=O)CC(c6ccccc6)CC5=O)s4)cccc3C2=O)C(=O)N1 (stereo not drawn) [Compound 84] | +++ (survival rate (%)≤30) |
| O=C1CCC(N2Cc3c(NC(=O)OCOC(=O)C=CC(=O)N4CCN(CCNC=C5C(=O)CC(c6ccccc6)CC5=O)CC4)cccc3C2=O)C(=O)N1 (stereo not drawn) [Compound 85] | + (60≤survival rate (%)<90) |

Tested on: RPMI-8226
Assay: Inhibition of tumor cell proliferation, CellTiter-Glo, RPMI-8226
Format: cell-based
Conditions: compound concentration 50 μM, 72 hours
Procedure: as §1, §2

| SMILES | Inhibitory activity against proliferation (cell survival rate) RPMI-8226 |
| --- | --- |
| O=C1CCC(N2Cc3c(NC(=O)NCCNC=C4C(=O)CC(c5ccccc5)CC4=O)cccc3C2=O)C(=O)N1 (stereo not drawn) [Compound 77] | + (60≤survival rate (%)<90) |
| O=C1CCC(N2Cc3c(NC(=O)OCCNC=C4C(=O)CC(c5ccccc5)CC4=O)cccc3C2=O)C(=O)N1 (stereo not drawn) [Compound 78] | + (60≤survival rate (%)<90) |
| O=C1CCC(N2Cc3c(NC(=O)OCCN4CCN(CCNC=C5C(=O)CC(c6ccccc6)CC5=O)CC4)cccc3C2=O)C(=O)N1 (stereo not drawn) [Compound 79] | +++ (survival rate (%)≤30) |
| O=C1CCC(N2C(=O)c3cccc(NC(=O)OCCN4CCN(CCNC=C5C(=O)CC(c6ccccc6)CC5=O)CC4)c3C2=O)C(=O)N1 (stereo not drawn) [Compound 80] | +++ (survival rate (%)≤30) |
| O=C1CCC(N2Cc3c(NC(=O)Nc4ccccc4OC(=O)CCC(=O)OCCN4CCN(CCNC=C5C(=O)CC(c6ccccc6)CC5=O)CC4)cccc3C2=O)C(=O)N1 (stereo not drawn) [Compound 81] | + (60≤survival rate (%)<90) |
| O=C1CCC(N2C(=O)c3cccc(NC(=O)OCc4ccc(NC=C5C(=O)CC(c6ccccc6)CC5=O)nc4)c3C2=O)C(=O)N1 (stereo not drawn) [Compound 83] | + (60≤survival rate (%)<90) |
| O=C1CCC(N2Cc3c(NC(=O)OCc4cnc(NC=C5C(=O)CC(c6ccccc6)CC5=O)s4)cccc3C2=O)C(=O)N1 (stereo not drawn) [Compound 84] | +++ (survival rate (%)≤30) |
| O=C1CCC(N2Cc3c(NC(=O)OCOC(=O)C=CC(=O)N4CCN(CCNC=C5C(=O)CC(c6ccccc6)CC5=O)CC4)cccc3C2=O)C(=O)N1 (stereo not drawn) [Compound 85] | +++ (survival rate (%)≤30) |

Tested on: K562
Assay: Inhibition of tumor cell proliferation, CellTiter-Glo, K562
Format: cell-based
Conditions: compound concentration 50 μM, 72 hours
Procedure: as §1, §2

| SMILES | Inhibitory activity against proliferation (cell survival rate) K562 |
| --- | --- |
| O=C1CCC(N2Cc3c(NC(=O)NCCNC=C4C(=O)CC(c5ccccc5)CC4=O)cccc3C2=O)C(=O)N1 (stereo not drawn) [Compound 77] | +++ (survival rate (%)≤30) |
| O=C1CCC(N2Cc3c(NC(=O)OCCNC=C4C(=O)CC(c5ccccc5)CC4=O)cccc3C2=O)C(=O)N1 (stereo not drawn) [Compound 78] | +++ (survival rate (%)≤30) |
| O=C1CCC(N2Cc3c(NC(=O)OCCN4CCN(CCNC=C5C(=O)CC(c6ccccc6)CC5=O)CC4)cccc3C2=O)C(=O)N1 (stereo not drawn) [Compound 79] | + (60≤survival rate (%)<90) |
| O=C1CCC(N2C(=O)c3cccc(NC(=O)OCCN4CCN(CCNC=C5C(=O)CC(c6ccccc6)CC5=O)CC4)c3C2=O)C(=O)N1 (stereo not drawn) [Compound 80] | +++ (survival rate (%)≤30) |
| O=C1CCC(N2Cc3c(NC(=O)Nc4ccccc4OC(=O)CCC(=O)OCCN4CCN(CCNC=C5C(=O)CC(c6ccccc6)CC5=O)CC4)cccc3C2=O)C(=O)N1 (stereo not drawn) [Compound 81] | +++ (survival rate (%)≤30) |
| O=C1CCC(N2C(=O)c3cccc(NC(=O)OCc4ccc(NC=C5C(=O)CC(c6ccccc6)CC5=O)nc4)c3C2=O)C(=O)N1 (stereo not drawn) [Compound 83] | + (60≤survival rate (%)<90) |
| O=C1CCC(N2Cc3c(NC(=O)OCc4cnc(NC=C5C(=O)CC(c6ccccc6)CC5=O)s4)cccc3C2=O)C(=O)N1 (stereo not drawn) [Compound 84] | +++ (survival rate (%)≤30) |
| O=C1CCC(N2Cc3c(NC(=O)OCOC(=O)C=CC(=O)N4CCN(CCNC=C5C(=O)CC(c6ccccc6)CC5=O)CC4)cccc3C2=O)C(=O)N1 (stereo not drawn) [Compound 85] | ++ (30<survival rate (%)≤60) |
